{"source": "patent US20240309418A1", "about": "“ENZYMATIC METHODS AND COMPOSITIONS FOR POLYMERIZATION OF PHOSPHORAMIDATE AND THIOPHOSPHORAMIDATE-LINKED DNA” (The General Hospital Corporation, priority 2023, published 2024)", "key": {"[1]": {"molecular_target": "wild-type BF (Geobacillus stearothermophilus, UniProt P52026)", "sequence (P52026 other isoform, or with tags, fused parts or gaps with the stated changes)": "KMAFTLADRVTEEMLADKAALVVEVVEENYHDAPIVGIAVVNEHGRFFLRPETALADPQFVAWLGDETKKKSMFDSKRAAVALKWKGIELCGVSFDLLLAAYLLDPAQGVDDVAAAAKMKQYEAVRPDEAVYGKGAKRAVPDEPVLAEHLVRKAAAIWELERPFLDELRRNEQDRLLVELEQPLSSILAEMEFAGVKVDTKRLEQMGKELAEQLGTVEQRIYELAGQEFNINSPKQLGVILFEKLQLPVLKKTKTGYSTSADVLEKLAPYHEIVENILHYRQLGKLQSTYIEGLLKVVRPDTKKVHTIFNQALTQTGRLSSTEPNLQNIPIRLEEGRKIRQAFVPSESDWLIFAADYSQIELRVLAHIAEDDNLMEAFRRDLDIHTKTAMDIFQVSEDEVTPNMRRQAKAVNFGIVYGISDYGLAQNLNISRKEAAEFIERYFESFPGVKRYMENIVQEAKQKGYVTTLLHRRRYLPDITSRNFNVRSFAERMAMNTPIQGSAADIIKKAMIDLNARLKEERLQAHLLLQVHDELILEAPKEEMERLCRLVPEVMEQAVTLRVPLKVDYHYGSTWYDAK", "assay_type": "biochemical, Bacillus stearothermophilus", "details": "for Kinetics of 3′-amino primer extension vs. absence of added divalent metals: 5 mM metal ion, 55° C., pH 8.8; for kpol of 3′-amino primer extension by wild-type BF: varying metal chloride concentration; for Kd: in the presence of 1 mM dCTP, read-out: Kd,app (apparent dissociation constant of metal ion)", "description": "Primer extension assays. Except where indicated, all extension reactions were performed with 1 μM fluorescein-labeled primer, 1.5 μM template, and ˜1.1 μM purified His6-tagged protein at 55° C. in a reaction buffer composed of 40 mM Tris-HCl, pH 8.8, 1 mM DTT, and a divalent cation as specified, typically 10 mM CaCl2. Reaction mixtures were equilibrated at the indicated reaction temperature for 1 min and initiated by addition of substrate. Progress was monitored by sampling 1 μL from the reaction manually quenched into 24 μL of chilled 90% formamide, 10 mM EDTA. Quenched samples were denatured at 90° C. for 1 min and cooled to room temperature prior to separation by denaturing polyacrylamide gel electrophoresis on 20% TBE-urea gels. To maintain strand separation for long extension products, as in FIGS. 3F-3H, an unlabeled DNA oligonucleotide complementary to the template was added to the quenching buffer (˜2 μM) prior to denaturation. Typically, 3 or 4 μL of quenched sample was loaded per lane for gels of 0.75-mm thickness. Bands were visualized with a Typhoon laser scanning imager (GE Amersham) and quantified with the manufacturer's software. For acid digestion of extended products, a reaction sample was diluted with 2.5 volumes of 1% acetic acid, 10 mM EDTA in formamide and digested at 75° C. for 45 min prior to gel separation."}, "[2]": {"molecular_target": "BF (Geobacillus stearothermophilus, UniProt P52026, F710Y)", "sequence (P52026 other isoform, or with tags, fused parts or gaps with the stated changes)": "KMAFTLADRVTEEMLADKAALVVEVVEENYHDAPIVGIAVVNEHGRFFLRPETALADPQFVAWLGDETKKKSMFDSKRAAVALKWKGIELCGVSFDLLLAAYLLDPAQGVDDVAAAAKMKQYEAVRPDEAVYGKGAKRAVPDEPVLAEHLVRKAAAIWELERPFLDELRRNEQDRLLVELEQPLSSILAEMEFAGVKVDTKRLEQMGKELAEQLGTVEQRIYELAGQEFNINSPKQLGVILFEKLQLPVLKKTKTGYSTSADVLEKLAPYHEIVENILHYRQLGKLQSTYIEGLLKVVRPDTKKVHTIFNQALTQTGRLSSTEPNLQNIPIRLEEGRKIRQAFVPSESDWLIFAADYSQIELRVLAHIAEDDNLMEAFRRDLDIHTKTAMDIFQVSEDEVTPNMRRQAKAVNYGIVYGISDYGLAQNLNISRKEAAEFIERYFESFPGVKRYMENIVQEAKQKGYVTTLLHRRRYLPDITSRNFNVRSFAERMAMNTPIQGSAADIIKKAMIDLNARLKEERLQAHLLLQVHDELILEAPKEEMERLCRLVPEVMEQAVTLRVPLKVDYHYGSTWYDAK", "experiment": "Extension of a native DNA 3′-OH primer with nCTP and trivalent cofactors", "assay_type": "biochemical", "details": "for pre-steady-state rate constant for extension of a native DNA 3′-OH terminus with nCTP: 5 mM metal, stoichiometric citrate, 55° C., mean±s.d."}, "[3]": {"molecular_target": "T1, BF F710Y (Geobacillus stearothermophilus, UniProt P52026, F710Y)", "experiment": "Elemental thio effect on pre-steady-state NP synthesis", "assay_type": "biochemical", "details": "45° C."}, "[4]": {"molecular_target": "T2, BF F710Y/D598A (Geobacillus stearothermophilus, UniProt P52026, A338V/A406G/A407V/A456E/A482S/A505K/A513T/A699P/A741E/D309E/D325E/D540E/D696E/D751E/E459R/E695D/F710Y/G324E/G408D/G483S/G600K/G678D/H329D/H417K/H567Y/H573N/H596R/H691Q/I672M/I841M/K356Q/L337V/L358V/L461F/M462L/M605I/N487E/P645S/P870S/Q512G/Q748R/R341H/R388C/R516Q/R816K/R823H/S306R/S424P/S812N/T369S/T436A/T442V/T475V/T491A/T508A/T536V/T728S/T790M/V391S/V413A/V537I/V598A/V619T/V813A)", "T2 sequence (P52026 other isoform, or with tags, fused parts or gaps with the stated changes)": "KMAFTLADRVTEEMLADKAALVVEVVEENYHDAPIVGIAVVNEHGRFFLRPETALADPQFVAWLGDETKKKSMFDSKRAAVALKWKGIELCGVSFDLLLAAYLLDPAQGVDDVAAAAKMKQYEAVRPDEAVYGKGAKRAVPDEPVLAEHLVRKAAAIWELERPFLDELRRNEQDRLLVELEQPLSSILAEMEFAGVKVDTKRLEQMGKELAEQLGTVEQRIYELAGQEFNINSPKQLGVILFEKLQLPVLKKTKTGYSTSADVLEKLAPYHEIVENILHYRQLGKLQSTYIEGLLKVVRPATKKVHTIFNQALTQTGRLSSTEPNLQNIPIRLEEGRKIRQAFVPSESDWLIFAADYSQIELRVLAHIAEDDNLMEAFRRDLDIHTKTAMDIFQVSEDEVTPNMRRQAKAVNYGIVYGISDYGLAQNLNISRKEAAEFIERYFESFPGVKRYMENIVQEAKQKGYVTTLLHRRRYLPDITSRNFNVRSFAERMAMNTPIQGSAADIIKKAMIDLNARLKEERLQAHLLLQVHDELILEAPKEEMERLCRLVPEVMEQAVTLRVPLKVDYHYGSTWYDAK", "assay_type": "biochemical", "details": "for Effect on NP-DNA polymerization with all four nNTPs on mixed sequence templates: vs. Ca2+"}, "[5]": {"molecular_target": "T2, BF F710Y/D598A", "assay_type": "biochemical", "design": "burst activity kpol: unit not given here", "details": "for pre-steady-state rate constant for nCTP addition: 3′-amino terminal primer; for Acceleration of kinetics over Ca2+: nCTP addition"}, "[6]": {"molecular_target": "T1, BF F710Y", "experiment": "Solvent deuterium kinetic isotope effect (SDKIE) of 3′-amino primer extension", "assay_type": "biochemical", "details": "1 mM dCTP, 10 mM CaCl2, varying mole fraction D2O"}}, "note": "Values joined by “and” are separate entries in the source; they are usually repeats but may differ in a detail not shown here. Equal values may be shown once. Read-outs that look alike come from different tables or passages of the source."}
{"smiles": "[Sr+2]", "note": "[Sr^2+]", "values": [{"measurement": "Kinetics of 3′-amino primer extension vs. absence of added divalent metals", "setting": "[1]", "result": "faster"}]}
{"smiles": "[Sc+3]", "note": "[Sc^3+]", "values": [{"measurement": "pre-steady-state rate constant for extension of a native DNA 3′-OH terminus with nCTP", "setting": "[2]", "result": "5.5±0.6×10^−3 min^−1"}, {"measurement": "3′-OH extension compared with 3′-NH2 extension", "setting": "[2]; nCTP", "result": "at least three orders of magnitude slower"}, {"measurement": "Specificity for the Sp over Rp substrates", "setting": "[3]; Sc3+ activated", "result": 66, "unit": "fold"}, {"measurement": "thio effect", "setting": "[3]; Sc3+ activated, mean±s.d.", "result": "0.58±0.07"}, {"measurement": "Length of NP-DNA strands yielded", "setting": "[4]", "result": "≥ 100", "unit": "nts"}, {"measurement": "Overall NP polymerase reaction time to yield full length products", "setting": "[4]; Sc3+ and spermine, 55° C.", "result": "0.9-1.3 min/nt"}, {"measurement": "Effect on NP-DNA polymerization with all four nNTPs on mixed sequence templates", "setting": "[4]", "result": "significantly improved"}, {"measurement": "Full length products on mixed sequence DNA templates", "setting": "[4]; with spermine, 55° C.", "result": "up to +71 nt"}, {"measurement": "Time to synthesize full length products", "setting": "[4]; with spermine, 55° C., +71 or +100 nt templates", "result": "1 to 2", "unit": "h"}, {"measurement": "Full length products on mixed sequence DNA templates, with additional enzyme", "setting": "[4]; with spermine, additional enzyme, 55° C.", "result": "up to +100 nt"}, {"measurement": "pre-steady-state rate constant for nCTP addition", "setting": "[5]; 55° C.", "result": "7.1 ± 0.5 min⁻¹ and 6.8 ± 0.3 min⁻¹"}, {"measurement": "Acceleration of kinetics over Ca2+", "setting": "[5]; 55° C.", "result": "~100", "unit": "fold"}, {"measurement": "Acceleration of kinetics over Ca2+", "setting": "[5]; 55° C., listed as Scandium(III)", "result": "> 100", "unit": "fold"}, {"measurement": "Effect on single-nucleotide 3′-amino primer extension", "setting": "[5]; vs. Ca2+", "result": "significantly improved"}, {"measurement": "Stabilization effect", "setting": "[5]; vs. Ca2+", "result": "ca. −3 kcal/mol"}]}
{"smiles": "[Y+3]", "note": "[Y^3+]", "values": [{"measurement": "Effect on NP-DNA polymerization with all four nNTPs on mixed sequence templates", "setting": "[4]", "result": "significantly improved"}, {"measurement": "Effect on single-nucleotide 3′-amino primer extension", "setting": "[5]; vs. Ca2+", "result": "significantly improved"}]}
{"smiles": "Nc1ccn([C@H]2C[C@H](O)[C@@H](COP(O)(=S)OP(=O)(O)OP(=O)(O)O)O2)c(=O)n1", "note": "(stereo partly drawn) [Sp-dCTPαS, 2′-deoxycytidine 5′-O-(1-thiotriphosphate), reference compound]", "values": [{"measurement": "thio effect kO/kS", "setting": "[3]; Ca2+ activated, dCTP vs. Sp-dCTPαS, mean±s.d.", "result": "10.6±0.5"}]}
{"smiles": "[Lu+3]", "note": "[Lu^3+]", "values": [{"measurement": "pre-steady-state rate constant for extension of a native DNA 3′-OH terminus with nCTP", "setting": "[2]", "result": "8±1×10^−3 min^−1"}, {"measurement": "Multiple turnover activity in long primer extensions relative to Sc3+", "setting": "[4]; 55° C.", "result": "far weaker multiple turnover activity"}, {"measurement": "Effect on NP-DNA polymerization with all four nNTPs on mixed sequence templates", "setting": "[4]", "result": "significantly improved"}, {"measurement": "burst activity kpol", "setting": "[5]; 55° C., nCTP, mean±s.e.m", "result": "6.9±0.7"}, {"measurement": "Effect on single-nucleotide 3′-amino primer extension", "setting": "[5]; vs. Ca2+", "result": "significantly improved"}]}
{"smiles": "[Ba+2]", "note": "[Ba^2+]", "values": [{"measurement": "Kinetics of 3′-amino primer extension vs. absence of added divalent metals", "setting": "[1]", "result": "faster"}]}
{"smiles": "[Ca+2]", "note": "[Ca^2+]", "values": [{"measurement": "Maximum reaction velocity, saturating Ca2+ vs. Mg2+", "setting": "[1]; 1 mM dCTP", "result": "~5", "unit": "fold"}, {"measurement": "kpol of 3′-amino primer extension by wild-type BF", "setting": "[1]; 1 mM dCTP", "result": 0.075, "unit": "min⁻¹"}, {"measurement": "Kinetics of 3′-amino primer extension vs. absence of added divalent metals", "setting": "[1]", "result": "faster"}, {"measurement": "Kd", "setting": "[1]", "result": 2100, "unit": "µM"}, {"measurement": "Kinetic effect among divalent cofactors", "setting": "[1]; pH 8.8 and 55° C.", "result": "largest kinetic effect"}, {"measurement": "Maximum reaction velocity", "setting": "[1]; saturating metal ion", "result": "~4.5", "unit": "nt/hr"}, {"measurement": "SDKIE", "setting": "[6]", "result": 1.16}, {"measurement": "pre-steady-state rate constant for nCTP addition", "setting": "[5]; 55° C.", "result": 0.069, "unit": "min⁻¹"}]}
{"smiles": "Nc1ccn([C@H]2C[C@H](O)[C@@H](COP(O)(=S)OP(=O)(O)OP(=O)(O)O)O2)c(=O)n1", "note": "(stereo partly drawn) [Rp-dCTPαS, 2′-deoxycytidine 5′-O-(1-thiotriphosphate), reference compound]", "values": [{"measurement": "Additional thio effect for Rp vs. Sp substrate", "setting": "[3]; Ca2+ activated", "result": 4, "unit": "fold"}]}
{"smiles": "[Mg+2]", "note": "[Mg^2+]", "values": [{"measurement": "kpol of 3′-amino primer extension by wild-type BF", "setting": "[1]; 1 mM dCTP", "result": 0.015, "unit": "min⁻¹"}, {"measurement": "Kinetics of 3′-amino primer extension vs. absence of added divalent metals", "setting": "[1]", "result": "faster"}, {"measurement": "Kd", "setting": "[1]", "result": 1300, "unit": "µM"}, {"measurement": "Effect of added Mg2+ on NP-DNA synthesis activated by Sc3+", "setting": "[4]; low millimolar range", "result": "inhibited"}]}
{"smiles": "NCCCNCCCCNCCCN", "note": "[spermine]", "values": [{"measurement": "Activation of long NP-DNA synthesis by polyamine", "setting": "[4]", "result": "optimal at low micromolar concentrations"}]}
